Measurements published in US20050159476A1, “Pharmaceutical composition for preventing or treating respiratory disease” (Chugai Seiyaku Kabushiki Kaisha, priority 2002, published 2005).
Read-outs that look alike come from different tables or passages of the source.

Legend:
[1] = tested on: human A549 cells; experiment: Protective effect against cell injury induced by oxidized LDL in human A549 cells (LDH leakage); assay type: cell-based; settings: for inhibition at 3 µM / inhibition at 30 µM: Homo sapiens, oxidized LDL 100 μg/mL, 24 hours, average ± standard error; for inhibition at 3 µM: 3 μmol/L test compound; for inhibition at 30 µM: 30 μmol/L test compound; for % cell protection as a function of test compound concentration (FIG. 1): test compound added immediately before oxidized LDL, Test Example 2
Protocol: (§1) Oxidized LDL was prepared by maintaining 1 mg/mL of rabbit LDL at 37° C for 24 hours in PBS (-) containing 10 μmol/L CUSO4.
Human A549 cells used in this test are available under accession number ATCC-CCL-185 and have the properties of type II alveolar epithelial cells (Lieber M, Smith B, Szakal A, Nelson-Rees W, Todaro G., A continuous tumor-cell line from a human lung carcinoma with properties of type II alveolar epithelial cells. Int J Cancer Jan. 15, 1976; 17(1):62-70).
(§2) These cells were dispersed in F12K medium containing 10% FBS and plated on a 24-well plate at 2.5×10^4 cells/500 μL/well. These cells were incubated at 37° C. for 18 hours and then the medium was replaced by F12K medium containing 2% FBS. At this time, 2.5 μL of a solution or a suspension of each test compound in ethanol was added at the concentrations of the test compound of 3 μmol/L and 30 μmol/L in each well.
(§3) After incubation at 37° C. for 6 hours, 50 μL of a suspension of oxidized LDL was added per well at the concentration of oxidized LDL of 100 μg/mL in each well.
(§4) After incubation at 37° C. for 24 hours, 200 μL of the supernatant was collected from each well and the amount of lactate dehydrogenase (LDH) leaked from cells was determined by the SFBC method.
(§5) Further test was carried out in the same manner as the above test with the exception that each test compound was added to the cell culture after incubation for 6 hours following medium replacement and immediately before oxidized LDL was added thereto rather than when the medium was replaced with F12K medium containing 2% FBS.
(§6) Higher LDH levels in the supernatant indicate that greater cell injury is induced by oxidized LDL. Separately, one experiment was carried out using a well in the same manner as the above test with the exception that no test compound was added to the well. The level of LDH in this well was defined as 0% cell protection. In addition, other experiment was carried out using another well without adding either test compound or oxidized LDL but with adding saline instead. The level of LDH in this well was defined as 100% cell protection. These levels of LDH were used for calculating cell protection of each test compound used in the above test.
Probucol and α-tocopherol were tested for comparison with the compounds of the present invention. In this test, the test compounds were added to the cell culture after incubation for 6 hours following medium replacement and immediately before oxidized LDL was added.

[2] = tested on: normal human bronchial/tracheal epithelial cells (NHBE w/RA); experiment: Protective effect against cell injury induced by oxidized LDL in normal human bronchial/tracheal epithelial cells (LDH leakage); assay type: cell-based; settings: 24 h, average ± standard error; for inhibition at 3 µM: 3 μmol/L test compound; for inhibition at 30 µM: 30 μmol/L test compound
Protocol: as §1, §2, §3, §4, §5, §6
This test example was carried out in a similar manner to test example 1 except that human A549 cells were replaced with normal human bronchial/tracheal epithelial cells (NHBE w/RA: BioWhittaker Co.), cell culture medium was changed from F12K medium containing 10% FBS to BEGM® medium, and the replacement of medium was not made.

[3] = read-out: % Cell protection in the case where oxidized LDL was added 6 hrs after adding test compound
[4] = read-out: % Cell protection in the case where oxidized LDL was added immediately after adding test compound

| SMILES | inhibition at 3 µM [1, 3] [%] | inhibition at 3 µM [1, 4] [%] | inhibition at 30 µM [1, 3] [%] | inhibition at 30 µM [1, 4] [%] | inhibition at 3 µM [2, 3] [%] | inhibition at 3 µM [2, 4] [%] | inhibition at 30 µM [2, 3] [%] | inhibition at 30 µM [2, 4] [%] | % cell protection as a function of test compound concentration (FIG. 1) [1] |
| --- | --- | --- | --- | --- | --- | --- | --- | --- | --- |
| CC(C)(C)c1cc2c(c(C(C)(C)C)c1O)CCO2 [Compound 1, 4,6-di-t-butyl-5-hydroxy-2,3-dihydrobenzofuran] | 11.3 ± 1.6 | 40.4 ± 8.3 | 99.6 ± 0.9 | 98.8 ± 0.2 | 5.9 ± 4.7 | 35.6 ± 16.8 | 74.7 ± 1.4 | 59.2 ± 7.6 |  |
| CC1(C)Cc2c(cc(C(C)(C)C)c(O)c2C(C)(C)C)O1 [Compound 2, 4,6-di-t-butyl-5-hydroxy-2,2-dimethyl-2,3-dihydrobenzofuran] | 0.5 ± 1.3 | 16.9 ± 10.5 | 99.5 ± 1.1 | 100 ± 1.5 | 32.8 ± 2.9 | 71.1 ± 1.3 | 27.7 ± 2.7 | 76.1 ± 3.4 |  |
| CC(C)(C)c1cc2c(c(C(C)(C)C)c1O)CC(Cc1ccccc1)(Cc1ccccc1)O2 [Compound 4, 4,6-di-t-butyl-2,2-dibenzyl-5-hydroxy-2,3-dihydrobenzofuran] | 6.1 ± 2.5 | 5.3 ± 2.5 | 94.1 ± 0.4 | 95.3 ± 3.4 | 12.3 ± 4.3 | 9.1 ± 2.3 | 47.8 ± 1.6 | 53.5 ± 3.1 |  |
| CC1(CN)Cc2c(cc(C(C)(C)C)c(O)c2C(C)(C)C)O1 (stereo not drawn) [Compound 5, 2-aminomethyl-4,6-di-t-butyl-5-hydroxy-2-methyl-2,3-dihydrobenzofuran] | 6.4 ± 0.8 | 6.9 ± 3.1 | 96.5 ± 0.5 | 97.1 ± 0.8 | 6.3 ± 4.5 | 0.8 ± 4.6 | 33.6 ± 1.8 | 48.3 ± 8.1 |  |
| CC1(C(=O)O)Cc2c(cc(C(C)(C)C)c(O)c2C(C)(C)C)O1 (stereo not drawn) [Compound 6, 4,6-di-t-butyl-5-hydroxy-2-methyl-2,3-dihydrobenzofuran-2-carboxylic acid] | 8.5 ± 0.8 | 9.1 ± 1.2 | 65.3 ± 2.9 | 46.7 ± 2.9 | -0.9 ± 1.8 | 0.3 ± 2 | 44.8 ± 3.2 | 30.3 ± 3.1 |  |
| CC(C)(C)c1cc2c(c(C(C)(C)C)c1O)CC1(CCCCCC1)O2 [Compound 7, 4,6-di-t-butyl-5-hydroxy-2,3-dihydrobenzofuran-2-spiro-1′-cycloheptane] | 1.6 ± 6 | -0.8 ± 2.8 | 98.2 ± 2.1 | 98.4 ± 1.1 | 7.7 ± 3.6 | 11.3 ± 1.1 | 58.7 ± 5.1 | 73.4 ± 0.4 |  |
| CC(C)(C)c1cc2c(c(C(C)(C)C)c1O)CC1(CCOCC1)O2 [Compound 8, 4,6-di-t-butyl-5-hydroxy-2,3-dihydrobenzofuran-2-spiro-4′-tetrahydropyran] | 10.6 ± 6.2 | 10.8 ± 5.2 | 95 ± 5.3 | 93.6 ± 2.9 | 10.1 ± 6 | 13.2 ± 1.4 | 74.3 ± 1.5 | 68.9 ± 0.8 |  |
| CC(C)(C)c1cc2c(c(C(C)(C)C)c1O)CC1(CCCC1)O2 [Compound 9, 4,6-di-t-butyl-5-hydroxy-2,3-dihydrobenzofuran-2-spiro-1′-cyclopentane] | -1.6 ± 4.4 | -1.5 ± 4.1 | 98.5 ± 1.8 | 99.2 ± 2.2 | 3.7 ± 6.7 | 6.1 ± 1.1 | 18.1 ± 2.3 | 71.1 ± 2.3 |  |
| CC(C)(C)c1cc2c(c(C(C)(C)C)c1O)CC1(CCCCC1)O2 [Compound 10, 4,6-di-t-butyl-5-hydroxy-2,3-dihydrobenzofuran-2-spiro-1′-cyclohexane] | -0.7 ± 1.5 | 0.9 ± 1.9 | 97.8 ± 2.1 | 96.9 ± 4.8 | 5.3 ± 2.6 | 13.1 ± 6.4 | 37.3 ± 4.3 | 57 ± 2.5 |  |
| CC(C)(C)c1cc2c(c(C(C)(C)C)c1O)CC1(CCSCC1)O2 [Compound 11, 4,6-di-t-butyl-5-hydroxy-2,3-dihydrobenzofuran-2-spiro-4′-tetrahydrothiopyran] | 3.5 ± 2.6 | 4.6 ± 2.6 | 99.3 ± 1.1 | 98.5 ± 0.8 | 3 ± 3.2 | 7.5 ± 7.6 | 52 ± 2.2 | 40.9 ± 5.3 |  |
| CC1(C)Cc2c(cc(C(C)(C)C)c(O)c2C(C)(C)C)S1 [Compound 12, 4,6-di-t-butyl-5-hydroxy-2,2-dimethyl-2,3-dihydrobenzothiophene] | 9.9 ± 6.8 | 11.1 ± 7.4 | 98.7 ± 2.9 | 96.6 ± 2 | 10.9 ± 2.1 | 10.9 ± 3.8 | 21.2 ± 2 | 48.7 ± 1.2 |  |
| CC(C)(C)c1cc2c(c(C(C)(C)C)c1O)CC1(CCCCC1)S2 [Compound 13, 4,6-di-t-butyl-5-hydroxy-2,3-dihydrobenzothiophene-2-spiro-1′-cyclohexane] | 10.8 ± 3.9 | 11.3 ± 3.5 | 98 ± 1 | 97.1 ± 4.3 | -3.4 ± 7.1 | -4.8 ± 2.9 | 37.8 ± 0.7 | 49.2 ± 1.7 |  |
| CC(C)(C)c1cc2c(c(C(C)(C)C)c1O)CC1(CCOCC1)S2 [Compound 14, 4,6-di-t-butyl-5-hydroxy-2,3-dihydrobenzothiophene-2-spiro-4′-tetrahydropyran] | 7 ± 3.5 | 3.2 ± 1.3 | 96.1 ± 1.2 | 98.9 ± 2.4 | -0.5 ± 1.9 | -1 ± 5.3 | 63.3 ± 0.8 | 60.6 ± 4 |  |
| Cc1cc2c(c(C)c1O)CC(C)(C)O2 [Compound 15, 5-hydroxy-2,2,4,6-tetramethyl-2,3-dihydrobenzofuran] | 30 ± 10.2 | 36.1 ± 14.1 | 100.6 ± 0.9 | 99.6 ± 0.7 | 45.9 ± 4.5 | 40.8 ± 3.3 | 79.5 ± 6.4 | 70.6 ± 4.9 |  |
| CC1(C)Cc2c(c(C(C)(C)C)cc(O)c2C(C)(C)C)O1 [Compound 16, 4,7-di-t-butyl-5-hydroxy-2,2-dimethyl-2,3-dihydrobenzofuran] | 100.3 ± 1 | 99.1 ± 0.9 |  | 98.4 ± 0.6 | 54.9 ± 3.4 | 62.6 ± 1.6 |  | 42 ± 2.2 |  |
| CCCCCC1(CCCCC)Cc2c(cc(C)c(O)c2C)O1 [Compound 17, 4,6-dimethyl-2,2-di-n-pentyl-5-hydroxy-2,3-dihydrobenzofuran] | 97.8 ± 1.4 | 97.7 ± 1.1 |  | 98.1 ± 3.6 | 44.8 ± 5.9 | 51 ± 5 |  | 57.6 ± 0.6 |  |
| CC(C)(C)c1cc2c(cc1O)CC1(CCCCCC1)O2 [Compound 18, 6-t-butyl-5-hydroxy-2,3-dihydrobenzofuran-2-spiro-1′-cycloheptane] | 98.7 ± 1.3 | 96.2 ± 0.4 |  | 97.4 ± 1 | 55.7 ± 3.1 | 46.4 ± 1.4 |  | 35.5 ± 1.9 |  |
| CC(C)(Sc1cc(C(C)(C)C)c(O)c(C(C)(C)C)c1)Sc1cc(C(C)(C)C)c(O)c(C(C)(C)C)c1 [probucol, reference compound] |  |  |  |  |  |  |  |  | does not increase or only slowly increases |
| Cc1c(C)c2c(c(C)c1O)CC[C@@](C)(CCC[C@H](C)CCC[C@H](C)CCCC(C)C)O2 [α-tocopherol, reference compound] |  |  |  |  |  |  |  |  | does not increase or only slowly increases |
